Measurements reported in patent publication US20250145566A1, “PHENETHYLAMINE DERIVATIVES, COMPOSITIONS, AND METHODS OF USE” (Cybin IRL Limited, priority 2022, published 2025).
Entries after “also recorded” stand apart in the source; their conditions may differ.

Legend:
[1] = target: Norepinephrine transporter (Homo sapiens, UniProt P23975); assay: Norepinephrine transporter uptake (h); format: cell-based
[2] = target: Dopamine transporter (Homo sapiens, UniProt Q01959); assay: Dopamine transporter uptake (h); format: cell-based
[3] = target: T1, 5-HT2A (h) (Homo sapiens, UniProt P28223); assay: 5-HT2A (h) agonist effect, IP1 HTRF functional assay; format: cell-based; conditions: for agonist efficacy at 5-HT2A, in words: EMAX relative to 5-HT
T1 construct: expressed in transfected cells; host or cells: HEK-293 cells

[4] = target: T2, MAO-B (Homo sapiens, UniProt P27338); assay: human MAO-B in vitro metabolism; format: in vitro ADME; conditions: human MAO-B enzyme (Corning), test compound 1 μM, read-out: MAO-B t1/2
T2 construct: purchased Corning 456284
T2 sequence (P27338 1-520): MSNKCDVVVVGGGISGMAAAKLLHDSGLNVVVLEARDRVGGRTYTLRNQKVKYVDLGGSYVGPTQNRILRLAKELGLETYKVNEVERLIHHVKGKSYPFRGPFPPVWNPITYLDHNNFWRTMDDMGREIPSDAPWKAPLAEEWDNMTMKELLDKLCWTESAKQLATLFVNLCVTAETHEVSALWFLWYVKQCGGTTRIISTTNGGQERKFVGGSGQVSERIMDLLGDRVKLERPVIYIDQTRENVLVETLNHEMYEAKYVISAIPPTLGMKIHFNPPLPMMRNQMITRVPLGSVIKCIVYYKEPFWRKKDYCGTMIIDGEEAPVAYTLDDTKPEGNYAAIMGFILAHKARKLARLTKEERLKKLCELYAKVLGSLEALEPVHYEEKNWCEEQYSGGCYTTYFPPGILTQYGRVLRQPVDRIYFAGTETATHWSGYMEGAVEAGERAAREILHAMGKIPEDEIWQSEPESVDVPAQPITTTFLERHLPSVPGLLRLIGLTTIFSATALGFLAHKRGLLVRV
Description: In a different series of reactions using human MAO-A and MAO-B, a 10 mM stock solution of the test compound was prepared in DMSO. From this stock solution, an intermediate stock solution of 1 mM was prepared by diluting the compound in DMSO and from this intermediate stock solution, a working solution of 0.30 mM was prepared by diluting the compound in ACN:Water (50:50) as cocktail of 2 compounds (30 μL each compound in 40 μL diluent for 100 μL). Following this, a master mix of 0.1 M potassium phosphate buffer and test compound mixture i.e., the non-deuterated and the deuterated analog, were prepared to achieve final drug concentration of 1 μM (0.2% DMSO) for the required number of reactions. The aforementioned master mix was pre-incubated at 37° C. for 5 min. To this master mix, MAO-A (final protein conc. 0.1 mg/mL; Corning Cat #456283; Lot #1173003) or MAO-B (final protein conc. 0.1 mg/mL; Corning Cat #456284; Lot #0318001) was added to initiate the reaction. The samples were then incubated at 37° C. for the desired time points. At each time point (0, 5, 15, 30, 45, 60), 40 μL of the samples were withdrawn and reactions were stopped using 200 μL chilled ACN containing 0.1% formic acid and internal standard Carbamazepine (10 ng/mL). The samples were centrifuged, and the supernatant was analyzed by LC-MS/MS. The percent compound remaining at each time point was calculated with respect to that of the 0 min sample. The data were then analyzed to calculate half-life and intrinsic clearance (CLint). Blank samples were prepared using DMSO (without the test compound).

[5] = target: T3, 5-HT2C (h) (Homo sapiens, UniProt P28335); assay: 5-HT2C (h) agonist effect, IP1 HTRF functional assay; format: cell-based; conditions: for agonist efficacy at 5-HT2C, in words: EMAX relative to 5-HT
T3 construct: expressed in transfected cells; host or cells: HEK-293 cells
T3 sequence (P28335 33-458): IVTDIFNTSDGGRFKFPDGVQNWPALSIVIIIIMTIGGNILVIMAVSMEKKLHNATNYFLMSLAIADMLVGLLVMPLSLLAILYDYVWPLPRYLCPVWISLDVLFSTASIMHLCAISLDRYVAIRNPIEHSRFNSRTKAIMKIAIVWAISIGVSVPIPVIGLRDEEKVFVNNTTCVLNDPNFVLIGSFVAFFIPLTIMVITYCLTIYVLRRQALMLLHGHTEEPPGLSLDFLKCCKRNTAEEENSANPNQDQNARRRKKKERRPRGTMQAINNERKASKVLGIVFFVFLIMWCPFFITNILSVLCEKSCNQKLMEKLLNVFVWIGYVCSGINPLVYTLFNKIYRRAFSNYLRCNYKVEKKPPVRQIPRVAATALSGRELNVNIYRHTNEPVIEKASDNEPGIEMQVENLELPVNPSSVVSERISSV

Sequence of Norepinephrine transporter (P23975 whole entry): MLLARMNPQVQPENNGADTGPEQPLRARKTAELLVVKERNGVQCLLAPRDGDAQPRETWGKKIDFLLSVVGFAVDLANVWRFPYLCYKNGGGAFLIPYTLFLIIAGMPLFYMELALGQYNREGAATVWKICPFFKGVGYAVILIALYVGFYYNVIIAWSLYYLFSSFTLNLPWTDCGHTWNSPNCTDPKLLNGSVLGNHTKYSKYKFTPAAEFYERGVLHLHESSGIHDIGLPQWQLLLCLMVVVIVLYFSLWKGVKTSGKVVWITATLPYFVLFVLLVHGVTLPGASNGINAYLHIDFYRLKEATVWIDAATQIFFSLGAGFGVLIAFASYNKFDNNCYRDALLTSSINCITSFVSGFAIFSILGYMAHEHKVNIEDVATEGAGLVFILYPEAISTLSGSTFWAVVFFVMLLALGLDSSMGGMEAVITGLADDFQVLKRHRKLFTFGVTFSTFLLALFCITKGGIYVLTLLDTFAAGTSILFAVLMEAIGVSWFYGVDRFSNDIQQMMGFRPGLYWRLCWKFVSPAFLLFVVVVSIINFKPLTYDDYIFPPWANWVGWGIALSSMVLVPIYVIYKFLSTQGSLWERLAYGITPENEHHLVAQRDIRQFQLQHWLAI
T1 sequence (P28223 whole entry): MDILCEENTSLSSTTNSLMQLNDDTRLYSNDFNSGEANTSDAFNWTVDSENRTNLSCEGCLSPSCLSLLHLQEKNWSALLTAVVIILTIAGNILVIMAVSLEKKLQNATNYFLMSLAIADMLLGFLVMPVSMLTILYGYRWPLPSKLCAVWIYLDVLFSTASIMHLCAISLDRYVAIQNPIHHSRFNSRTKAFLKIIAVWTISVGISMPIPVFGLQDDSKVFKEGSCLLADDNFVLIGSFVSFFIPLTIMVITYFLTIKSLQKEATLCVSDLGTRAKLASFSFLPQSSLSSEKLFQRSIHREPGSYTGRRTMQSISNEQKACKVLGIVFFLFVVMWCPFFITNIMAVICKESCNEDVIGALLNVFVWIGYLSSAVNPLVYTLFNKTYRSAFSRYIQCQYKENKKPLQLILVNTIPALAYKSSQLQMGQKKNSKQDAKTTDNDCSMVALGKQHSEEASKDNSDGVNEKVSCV
Sequence of Dopamine transporter (Q01959 whole entry): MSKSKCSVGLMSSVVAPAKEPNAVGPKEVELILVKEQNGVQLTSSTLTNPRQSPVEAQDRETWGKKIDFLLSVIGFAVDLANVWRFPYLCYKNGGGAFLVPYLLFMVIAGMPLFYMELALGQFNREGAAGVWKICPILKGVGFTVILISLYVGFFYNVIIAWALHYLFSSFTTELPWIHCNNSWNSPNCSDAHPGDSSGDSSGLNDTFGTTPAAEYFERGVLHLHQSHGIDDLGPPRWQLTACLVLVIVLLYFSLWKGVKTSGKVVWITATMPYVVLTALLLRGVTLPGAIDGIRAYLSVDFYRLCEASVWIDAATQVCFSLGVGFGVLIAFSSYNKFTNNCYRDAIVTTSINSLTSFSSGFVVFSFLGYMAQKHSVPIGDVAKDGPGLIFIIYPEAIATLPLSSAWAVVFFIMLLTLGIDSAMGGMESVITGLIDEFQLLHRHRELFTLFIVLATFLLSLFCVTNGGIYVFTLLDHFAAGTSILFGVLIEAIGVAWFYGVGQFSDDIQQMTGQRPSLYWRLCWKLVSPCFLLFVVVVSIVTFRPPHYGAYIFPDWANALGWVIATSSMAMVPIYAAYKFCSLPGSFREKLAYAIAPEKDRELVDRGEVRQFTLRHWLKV

In the case of `NCCc1ccc2c(c1)OCS2` [II-14, 2-(benzo[d][1,3]oxathiol-6-yl)ethan-1-amine], the IC50 [1] is reported as roughly 5 µM, the inhibition at 100 µM ([1]; at 100 μM, read-out: Function NET, inhibition of NET) is reported as 92.9% and the “Function NET (blocking reuptake of NE), efficacy in words” value ([1]; tested at 1, 10, 100 μM) is reported as “Near full efficacy,”. The “efficacy for blocking NE uptake through NET, in words” value ([1]; tested at 1, 10, 100 μM) was “full efficacy”, the IC50 ([2]; Function DAT Estimated IC50, blocking reuptake of DA) was roughly 10 µM and the inhibition at 100 µM ([2]; at 100 μM, read-out: Function DAT, inhibition of DAT) was 95%. For the same molecule, the “Function DAT (blocking reuptake of DA), efficacy in words” value ([2]; tested at 1, 10, 100 μM) was “Near full efficacy,”, the “efficacy for blocking DA uptake through DAT, in words” value ([2]; tested at 1, 10, 100 μM) was “full efficacy” and the EC50 [3] was 3 µM. The Emax at 100 µM ([3]; at 100 μM, relative to 5-HT, read-out: Function 5-HT2A EMAX) was 87.3%, the “Function 5-HT2A (IP-1, efficacy relative to 5-HT), agonist type” value ([3]; tested at 1, 3, 10, 100 μM) was “Nearly full agonist -” and the “agonist efficacy at 5-HT2A, in words” value ([3]; tested at 1, 3, 10, 100 μM) was “nearly full or full agonist; also recorded: full agonists”. The half-life at 1 µM [4] was less than 0.0833 h, the EC50 [5] was less than 0.75 µM and the Emax at 3 µM ([5]; at 3 μM, relative to 5-HT, read-out: Function 5-HT2C EMAX) was 107%. For the same molecule, the “Function 5-HT2C (Gq-IP1, efficacy relative to 5-HT), agonist type” value ([5]; tested at 1, 3, 10, 100 μM) was “Full agonist -” and the “agonist efficacy at 5-HT2C, in words” value ([5]; tested at 1, 3, 10, 100 μM) was “nearly full or full agonist; also recorded: full agonists”.
For `CC(N)Cc1ccc2c(c1)OCS2` (stereo not shown) [II-16, 1-(benzo[d][1,3]oxathiol-6-yl)propan-2-amine], the “efficacy for blocking NE uptake through NET, in words” value ([1]; tested at 1, 10, 100 μM) was “full efficacy”, the “efficacy for blocking DA uptake through DAT, in words” value ([2]; tested at 1, 10, 100 μM) was “full efficacy” and the “agonist efficacy at 5-HT2A, in words” value ([3]; tested at 1, 3, 10, 100 μM) was “nearly full or full agonist; also recorded: full agonists”. The half-life at 1 µM [4] was 14.3 h and the “agonist efficacy at 5-HT2C, in words” value ([5]; tested at 1, 3, 10, 100 μM) was “nearly full or full agonist; also recorded: full agonists”.
